Results: ChEMBL document CHEMBL4622951, “Chemical constituents of Callistemon citrinus from Egypt and their antiausterity activity against PANC-1 human pancreatic cancer cell line” (2020)
Calls of active or inactive are those of the source. No cut-off for these calls is given here.

Experiments:
PANC-1 [1] = experiment: Cytotoxicity against human PANC1 cells in nutrient-deprived medium; type: functional
PANC-1 [2] = experiment: Induction of apoptosis in human PANC1 cells assessed as decrease in membrane integrity at 1 nM incubated for 24 hrs by ethidium bromide and acridine orange based phase contrast microscopy analysis; type: functional, cell-based
PANC-1 [3] = experiment: Inhibition of cell migration of human PANC1 cells at 10 uM measured after 12 hrs by wound healing assay (reference value: 73 %); type: functional; conditions: PANC-1, 12 h
PANC-1 [4] = experiment: Inhibition of cell migration of human PANC1 cells at 20 uM measured after 12 hrs by wound healing assay (reference value: 73 %); type: functional; conditions: PANC-1, 12 h
PANC-1 [5] = experiment: Inhibition of cell migration of human PANC1 cells at 10 uM measured after 24 hrs by wound healing assay (reference value: 46 %); type: functional; conditions: PANC-1, 24 h
PANC-1 [6] = experiment: Inhibition of cell migration of human PANC1 cells at 20 uM measured after 24 hrs by wound healing assay (reference value: 46 %); type: functional; conditions: PANC-1, 24 h
PANC-1 [7] = experiment: Inhibition of cell migration of human PANC1 cells at 10 uM measured after 36 hrs by wound healing assay (reference value: 100 %); type: functional; conditions: PANC-1, 36 h
PANC-1 [8] = experiment: Inhibition of cell migration of human PANC1 cells at 20 uM measured after 36 hrs by wound healing assay (reference value: 100 %); type: functional; conditions: PANC-1, 36 h
PANC-1 [9] = experiment: Inhibition of cell migration of human PANC1 cells at 10 uM measured after 48 hrs by wound healing assay (reference value: 100 %); type: functional; conditions: PANC-1, 48 h
PANC-1 [10] = experiment: Inhibition of cell migration of human PANC1 cells at 20 uM measured after 48 hrs by wound healing assay (reference value: 100 %); type: functional; conditions: PANC-1, 48 h
PANC-1 [11] = experiment: Inhibition of cell migration of human PANC1 cells measured upto 48 hrs by wound healing assay; type: functional, cell-based
PANC-1 [12] = experiment: Inhibition of colony formation of human PANC1 cells at 2.5 to 10 uM incubated for 24 hrs followed by compound washout and subsequent incubation for 10 days by crystal violet staining based assay; type: functional, cell-based

SMILES: COc1cc(C[C@H]2C(=O)OC[C@@H]2Cc2ccc(OC)c(OC)c2)ccc1O [ARCTIGENIN]
- PC50 (PANC-1 [1]): 0.7 µM

SMILES: C[C@@H]1CC[C@@]23CC[C@]4(C)[C@@](C=C[C@@H]5[C@@]6(C)CC[C@H](O)C(C)(C)[C@@H]6CC[C@]54C)(OC2=O)C3[C@H]1C (stereo not given in full)
- PC50 (PANC-1 [1]): 0.4 µM

SMILES: CC(=O)[C@@H]1CC[C@]2(C(=O)O)CC[C@]3(C)[C@H](CC[C@@H]4[C@@]5(C)CC[C@H](O)C(C)(C)[C@@H]5CC[C@]43C)[C@@H]12 [PLATANIC ACID]
- PC50 (PANC-1 [1]): 14.2 µM

SMILES: C=C(C)[C@@H]1CC[C@]2(CO)CC[C@]3(C)[C@H](CC[C@@H]4[C@@]5(C)CC[C@H](O)C(C)(C)[C@@H]5CC[C@]43C)[C@@H]12 [BETULIN]
- PC50 (PANC-1 [1]): 0.7 µM

SMILES: C[C@H]1[C@H](C)CC[C@]2(C(=O)O)CC[C@]3(C)C(=CC[C@@H]4[C@@]5(C)CC[C@H](O)C(C)(C)[C@@H]5CC[C@]43C)[C@H]12 [URSOLIC ACID]
- PC50 (PANC-1 [1]): 13.7 µM

SMILES: CC1(C)CC[C@]2(CO)CC[C@]3(C)C(=CC[C@@H]4[C@@]5(C)CC[C@H](O)C(C)(C)[C@@H]5CC[C@]43C)[C@@H]2C1 [ERYTHRODIOL]
- PC50 (PANC-1 [1]): 0.2 µM

SMILES: C=C(C)[C@@H]1CC[C@]2(C(=O)O)CC[C@]3(C)[C@H](CC[C@@H]4[C@@]5(C)CC[C@H](O)C(C)(C)[C@@H]5CC[C@]43C)[C@@H]12 [BETULINIC ACID]
- PC50 (PANC-1 [1]): 15.2 µM

SMILES: CC1(C)CC[C@]2(C(=O)O)CC[C@]3(C)C(=CC[C@@H]4[C@@]5(C)CC[C@H](O)C(C)(C)[C@@H]5CC[C@]43C)[C@@H]2C1 [OLEANOLIC_ACID]
- PC50 (PANC-1 [1]): 20.5 µM

SMILES: C[C@H]1[C@H](C)CC[C@]2(CO)CC[C@]3(C)C(=CC[C@@H]4[C@@]5(C)CC[C@H](O)C(C)(C)[C@@H]5CC[C@]43C)[C@H]12 [UVAOL]
- PC50 (PANC-1 [1]): 5.2 µM

SMILES: CC(C)CC(=O)c1c(O)c2c(c([C@H](C3=C(O)C(C)(C)C(=O)C(C)(C)C3=O)C(C)C)c1O)O[C@]1(C)C=C[C@@H](C(C)C)C[C@H]21
- Activity (PANC-1 [2]): Active
- inhibition at 10 µM (PANC-1 [3]): 87%
- inhibition at 20 µM (PANC-1 [4]): 96%
- inhibition at 10 µM (PANC-1 [5]): 76%
- inhibition at 20 µM (PANC-1 [6]): 94%
- inhibition at 10 µM (PANC-1 [7]): 67%
- inhibition at 20 µM (PANC-1 [8]): 89%
- inhibition at 10 µM (PANC-1 [9]): 65%
- inhibition at 20 µM (PANC-1 [10]): 80%
- inhibition (PANC-1 [11]): Dose-dependent effect
- inhibition (PANC-1 [12]): Active
